Measurements: paper PMC6474902, “Examination of novel 4-aminoquinoline derivatives designed and synthesized by a hybrid pharmacophore approach to enhance their anticancer activities” (Scientific Reports, 2019)
“Also recorded” adds a separate entry of the source. Like-named read-outs stand apart in the source and are kept apart here.

How the values were obtained:
HeLa = experiment: Combination with bortezomib, cell death; assay type: cell-based, human; settings: 48 h post-treatment; BTZ 6 nM, compound 13 0.75 µM, alone or combined
MDA-MB468 = experiment: SRB antiproliferative/antigrowth assay; assay type: cell-based, human; settings: Homo sapiens, read-out: GI50 MB468
Description: (§1) The antigrowth effects of 4-piperazinylquinoline sulfonyl analogs on human breast tumor cells was initially evaluated using MDA-MB468 (a PTEN defective, EGFR positive breast adenocarcioma), MDA-MB231 (p53 and pRB mutated, triple-negative breast carcinoma), and MCF7 (p53+/−, invasive ductal breast carcinoma) cell lines. In addition, the cytotoxicity of all the compounds was also evaluated with the 184B5 and MCF10A non-cancer immortalized breast epithelial cell lines, to determine if these newly synthesized compounds have differential cytotoxic effects on cancer and non-cancer cells. The panel of three breast cancer cell lines with different genetic back ground and the well-studied two non-cancer immortalized breast cell lines would provide insights into the efficacy and toxicity of the test compounds in the different genetic background and at different stages of tumor development. The dose response of each cell line was established by determining the number of viable cells after 48 h of continuous drug treatment against seven different concentrations (100 µM to 0.0064 µM) of each compound. The reading of sulphorodamine B (SRB) staining is known to accurately reflect the level of total cellular macromolecules/cell growth/proliferation[6],[23]. […] The data for CQ and cisplatin were included as references. […] The differences in the GI50 values may be attributable to such factors as the nature of the sulfonyl group and the halogen substitution on the 7th position of the 4-piperazinylquinoline ring system, and the genetic and biochemical background of the cell lines.
(§2) Antiproliferative/antigrowth effects were determined by a SRB-based protocol[6],[23]. For a typical screening experiment, 5,000–10,000 cells were inoculated into 100 µL medium per well of a 96-well microtiter plate as described previously. Briefly, after the inoculation, the microtiter plate was incubated at 37 °C, 5% CO2, 95% air and 100% relative humidity for 24 h, prior to addition of experimental drugs. Some of the sample wells were fixed with 25 µL of 50% tricholoroacetic acid (TCA) as a control of the cell population for each cell line at the time of drug addition (Tz). An aliquot of the frozen stock was thawed and diluted to a desired final maximum test-concentration with complete medium. Two to ten-fold serial dilutions were made to provide a total of seven drug concentrations (and a control [C]). Following addition of drugs, the culture plate was incubated for additional 48 h. Cells were fixed in situ by slowly adding 25 µL of ice-cold 50% (w/v) TCA (final concentration, 10% TCA), and were then incubated for 60 min at 4 °C. The supernatant was discarded, and the plate was washed five times with tap water, followed by air-dry. 50 µL of SRB solution at 0.4% (w/v) in 1% acetic acid was added to each well, and the plate was incubated for >30 min at room temperature. Unbound SRB was removed by five washes with tap water, followed by air-drying. The cells “stained” with SRB were solubilized with 10 mM trizma base, and the absorbance was read on an automated plate reader at a wavelength of 515–564 nm. The relative growth rate (%) was calculated for each of the compound concentrations according to the following formula: (Ti−Tz)/(C−Tz)×100
(§3) In the formula, time zero (Tz), control growth (C), and OD for different concentration of tested compounds (Ti). The GI50 for each compound was obtained from a non-linear Sigmoidal dose-response (variable slope) curve which is fitted by GraphPad Prism v.4.03 software. Values were calculated for each of these parameters if the level of activity was reached. However, if the effect was not reached or was exceeded, the value for that parameter was expressed as greater or less than the maximum or minimum concentration tested.

MCF7 = experiment: SRB antiproliferative/antigrowth assay; assay type: cell-based, human
Description: as §1, §2, §3

MDA-MB231 = experiment: SRB antiproliferative/antigrowth assay; assay type: cell-based, human; settings: for GI50: Homo sapiens, read-out: GI50 MB231
Description: as §1, §2, §3

lysosomal volume = test system: lysosomal volume; design: method as in PMID 16137197; settings: cited from earlier work
184B5 = experiment: SRB antiproliferative/antigrowth assay, non-cancer cells; assay type: cell-based, human; settings: Homo sapiens, 184B5, 48 h, read-out: GI50 184B5
Description: as §1, §2, §3

MCF10A = experiment: as above; assay type: cell-based, human; settings: Homo sapiens, MCF-10A, read-out: GI50 MCF10A
Description: as §1, §2, §3

[1] = test system: MDA-MB231, MDA-MB468, MCF7 breast cancer cells; 184B5 and MCF10A non-cancer breast cells; experiment: SRB assay, panel of breast cancer and non-cancer breast cell lines; assay type: cell-based, human; settings: judged from GI50 values of Table 1
Description: as §1, §2, §3

HeLa cells = experiment: Sequential treatment with monastrol and compound 13, DNA content; assay type: cell-based, human; settings: 100 μM monastrol, 18 h
Description: 0 h 2 h post-monastrol 4 h post-monastrol 6 h post-monastrol […]
death. HeLa cells, treated with 100 μM of monastrol for 18 h (defined 0 h), were released into complete medium in the absence (sham) or presence of 10 μM compound 13 (VR23). Note that monastrol arrested cells […]

[2] = MDA-MB-468, SRB, 48 h post-treatment, mean of triplicates of at least two experiments
[3] = Homo sapiens, MCF7, SRB, 48 h post-treatment, mean of triplicates of at least two experiments, read-out: GI50 MCF7
[4] = MDA-MB-231, SRB, 48 h post-treatment, mean of triplicates of at least two experiments
[5] = SRB, 48 h post-treatment, non-cancer breast epithelial cells
[6] = MDA-MB-468, 48 h, SRB, 48 h post-treatment, mean of triplicates of at least two experiments
[7] = Homo sapiens, MCF7, 48 h, SRB, 48 h post-treatment, mean of triplicates of at least two experiments, read-out: GI50 MCF7
[8] = MDA-MB-231, 48 h, SRB, 48 h post-treatment, mean of triplicates of at least two experiments
[9] = 48 h, SRB, 48 h post-treatment, non-cancer breast epithelial cells

| Compound | melting point | GI50 (MDA-MB468; [6]) | GI50 (MCF7; [7]) | GI50 (MDA-MB231; [8]) | GI50 (184B5) | preferential antigrowth effect on cancer versus non-cancer cells (in words) [1] | GI50 (184B5; [5]) | GI50 (MCF10A; [9]) | also measured |
| --- | --- | --- | --- | --- | --- | --- | --- | --- | --- |
| CC(C)C[C@H](NC(=O)[C@H](Cc1ccccc1)NC(=O)c1cnccn1)B(O)O [Bortezomib, bortezomib, reference compound] | – | – | – | – | – | – | – | – | cell death (HeLa): neither 6 nM BTZ nor 0.75 µM of compound 13 resulted in substantial HeLa cell death |
| CCN(CC)CCCC(C)Nc1ccnc2cc(Cl)ccc12 (centres unmarked) [Chloroquine, reference compound] | – | – | – | – | 76.1 ± 1.1 µM | – | – | – | GI50 (MDA-MB468; MDA-MB-468, 48 h): 28.6 ± 1.3 µM; GI50 (MCF7; Homo sapiens, MCF7, 48 h, read-out: GI50 MCF7, SRB, 48 h post-treatment, mean of triplicates of at least two experiments): 38.4 µM; GI50 (MCF7; read-out: GI50 MCF7, SRB, 48 h post-treatment, mean of triplicates of at least two experiments): 38.4 ± 1.2 µM; GI50 (MDA-MB231; MDA-MB-231, 48 h): 22.5 ± 1.4 µM; lysosomal volume (lysosomal volume): causes an increase in lysosomal volume; GI50 (MCF10A; 48 h): 81.3 ± 1.3 µM |
| O=[N+]([O-])c1ccc(S(=O)(=O)N2CCN(c3ccnc4cc(C(F)(F)F)ccc34)CC2)c([N+](=O)[O-])c1 [Compound 22, 4-[4-(2,4-Dinitro-benzenesulfonyl)-piperazin-1-yl]-7-trifluoromethyl-quinoline] | 178 to 180 °C | – | – | – | 37.8 ± 0.4 µM | effective and preferential antigrowth effects on cancer cells; also recorded: stronger antigrowth/antiproliferation activity against cancer cells than non-cancer cells | – | – | GI50 (MDA-MB468; [2]): 19.2 ± 0.6 µM; GI50 (MCF7; [3]): 10.8 ± 0.1 µM; GI50 (MDA-MB231; [4]): 24.3 ± 0.6 µM; GI50 (MCF10A; [5]): 35.4 ± 0.5 µM |
| O=[N+]([O-])c1ccc(S(=O)(=O)NCCCNc2ccnc3cc(C(F)(F)F)ccc23)c([N+](=O)[O-])c1 [Compound 40, 2,4-Dinitro-N-[3-(7-trifluoromethyl-quinolin-4-ylamino)-propyl]-benzenesulfonamide] | 198 to 200 °C | – | – | – | 15.9 ± 0.9 µM | effective and preferential antigrowth effects on cancer cells; also recorded: stronger antigrowth/antiproliferation activity against cancer cells than non-cancer cells | – | – | GI50 (MDA-MB468; [2]): 8.5 ± 0.4 µM; GI50 (MCF7; [3]): 5.6 ± 0.3 µM; increase in antigrowth activity against MDA-MB231 compared to mono nitro substituted compounds (30 and 39) (MDA-MB231): 1.7–2.3 fold; GI50 (MDA-MB231; [4]): 8.9 ± 0.8 µM; GI50 (MCF10A; [5]): 22.3 ± 0.8 µM |
| CCOC(=O)C1=C(C)NC(=S)NC1c1cccc(O)c1 (centres unmarked) [monastrol] | – | – | – | – | – | – | – | – | cell cycle arrest (HeLa cells): arrested cells at G2/M |

Further lines, with some results ahead:

| melting point | GI50 (MDA-MB468; [6]) | GI50 (MCF7; [7]) | GI50 (MDA-MB231; [8]) | Compound | GI50 (184B5) | preferential antigrowth effect on cancer versus non-cancer cells (in words) [1] | GI50 (184B5; [5]) | GI50 (MCF10A; [9]) | also measured |
| --- | --- | --- | --- | --- | --- | --- | --- | --- | --- |
| 190 to 192 °C | 4.6 ± 0.4 µM | 2.45 µM | 12.7 ± 1 µM | CN(C)c1cccc2c(S(=O)(=O)NCCCNc3ccnc4cc(Cl)ccc34)cccc12 [Compound 32, 5-Dimethylamino-naphthalene-1-sulfonic acid [3-(7-chloro-quinolin-4-ylamino)-propyl]-amide] | – | loss of preferential antigrowth effects on cancer cells | 1.7 ± 0.1 µM | 2.6 ± 0.1 µM | GI50 (MCF7; SRB, 48 h post-treatment, mean of triplicates of at least two experiments, read-out: GI50 MCF7): 2.5 ± 0.1 µM; increase in potency against MCF7 compared to CQ (MCF7; ratio of GI50 values): 15.7 fold |
| 77 to 79 °C | 6.2 ± 0.4 µM | 6.9 ± 0.5 µM | 6.4 ± 0.5 µM | Cc1ccc(S(=O)(=O)NCCCNc2ccnc3cc(C(F)(F)F)ccc23)cc1 [Compound 35, 4-Methyl-N-[3-(7-trifluoromethyl-quinolin-4-ylamino)-propyl]-benzenesulfonamide] | – | effective and preferential antigrowth effects on cancer cells; also recorded: stronger antigrowth/antiproliferation activity against cancer cells than non-cancer cells | 12.2 ± 0.9 µM | 10.9 ± 0.9 µM | – |
| 137 to 139 °C | 4.6 ± 0.2 µM | 4.3 ± 0.2 µM | 7.5 ± 0.6 µM | COC(=O)c1sccc1S(=O)(=O)NCCCNc1ccnc2cc(C(F)(F)F)ccc12 [Compound 42, 3-[3-(7-Trifluoromethyl-quinolin-4-ylamino)-propylsulfamoyl]-thiophene-2-carboxylic acid methyl ester] | – | effective and preferential antigrowth effects on cancer cells; also recorded: stronger antigrowth/antiproliferation activity against cancer cells than non-cancer cells | 12.1 ± 0.5 µM | 14.4 ± 0.8 µM | – |
